Measurements from ChEMBL document CHEMBL5120817, “Quinone Derivatives as Promising Anti-Helicobacter pylori Agents from Aerial Parts of Mitracarpus hirtus” (2022).
Values after ≈ are worked out from the molar mass of the structure shown.

Assays:
Type in all cases: functional
Helicobacter pylori [1] = experiment: Antibacterial activity against multidrug resistant Helicobacter pylori HP159 assessed as bacterial growth inhibition incubated for 3 days by broth microdilution method; details: HP159, 72 h, time 3 day
Helicobacter pylori [2] = experiment: Antibacterial activity against multidrug resistant Helicobacter pylori JRES00015 assessed as bacterial growth inhibition incubated for 3 days by broth microdilution method; details: JRES00015, 72 h, time 3 day
Helicobacter pylori [3] = experiment: Antibacterial activity against multidrug resistant Helicobacter pylori G27 assessed as bacterial growth inhibition incubated for 3 days by broth microdilution method; details: G27, 72 h, time 3 day
Helicobacter pylori [4] = experiment: Antibiofilm activity against Helicobacter pylori G27 assessed as reduction in preformed bacterial biofilm at 4 times MIC by crystal violet staining based assay; parameters: scale not given: the % may be the effect or the level left
Helicobacter pylori [5] = experiment: Potency index, ratio of metronidazole MIC to test compound MIC for antibacterial activity against multidrug resistant Helicobacter pylori JRES00015
Helicobacter pylori [6] = experiment: Antibiofilm activity against Helicobacter pylori G27 assessed as reduction in viable cells count at 4 times MIC
Helicobacter pylori [7] = experiment: Antibiofilm activity against Helicobacter pylori G27 assessed as reduction in viable bacteria within biofilms at 0.25 ug/ml incubated for 20 hrs by alamar blue assay; details: dose 0.25 µg/ml

SMILES | MIC (Helicobacter pylori [1]) [µg/mL] | MIC (Helicobacter pylori [2]) [µg/mL] | MIC (Helicobacter pylori [3]) [µg/mL] | Activity (Helicobacter pylori [4]) [%] | Ratio (Helicobacter pylori [5]) | Activity (Helicobacter pylori [6]) [log10CFU/ml] | Activity (Helicobacter pylori [7]) [%]
C[C@H]1O[C@@H](Oc2c3c(c(O[C@@H]4O[C@H](CO)[C@@H](O)[C@H](O)[C@H]4O)c4ccccc24)C=COC3)[C@H](O)[C@@H](O)[C@@H]1O | 32 (≈ 61.2 µM) | 32 (≈ 61.2 µM) | 32 (≈ 61.2 µM) | – | – | – | –
CC[C@H]1OC(=O)[C@H](C)[C@@H](O[C@H]2C[C@@](C)(OC)[C@@H](O)[C@H](C)O2)[C@H](C)[C@@H](O[C@@H]2O[C@H](C)C[C@H](N(C)C)[C@H]2O)[C@](C)(OC)C[C@@H](C)C(=O)[C@H](C)[C@@H](O)[C@]1(C)O [CLARITHROMYCIN] | 2 (≈ 2.67 µM) | 2 (≈ 2.67 µM) | 0.008 (≈ 0.0107 µM) | – | – | – | –
CO[C@H]1OCc2c(c(O[C@@H]3O[C@H](CO)[C@@H](O)[C@H](O)[C@H]3O)c3ccccc3c2O[C@@H]2O[C@H](C)[C@@H](O)[C@H](O)[C@H]2O)[C@@H]1O | 64 (≈ 112 µM) | 32 (≈ 56.1 µM) | 64 (≈ 112 µM) | – | – | – | –
CO[C@@H]1Cc2c(c(O[C@@H]3O[C@H](C)[C@@H](O)[C@H](O)[C@H]3O)c3ccccc3c2O[C@@H]2O[C@H](CO)[C@@H](O)[C@H](O)[C@H]2O)CO1 | 64 (≈ 115 µM) | 32 (≈ 57.7 µM) | 64 (≈ 115 µM) | – | – | – | –
CO[C@H]1Cc2c(c(O[C@@H]3O[C@H](CO)[C@@H](O)[C@H](O)[C@H]3O)c3ccccc3c2O[C@@H]2O[C@H](CO)[C@@H](O)[C@H](O)[C@H]2O)CO1 | > 64 | > 64 | > 64 | – | – | – | –
COc1cc2c(cc1O)C(=O)c1cc(C)ccc1C2=O | 8 (≈ 29.8 µM) | 16 (≈ 59.6 µM) | 16 (≈ 59.6 µM) | – | – | – | –
O=C1c2ccccc2C(=O)c2cnccc21 | 0.0625 (≈ 0.299 µM) | 0.0625 (≈ 0.299 µM) | 0.125 (≈ 0.598 µM) | 51 | 512 | 4.65 | 100
C[C@H]1COc2c(N3CCN(C)CC3)c(F)cc3c(=O)c(C(=O)O)cn1c23.C[C@H]1COc2c(N3CCN(C)CC3)c(F)cc3c(=O)c(C(=O)O)cn1c23.O [LEVOFLOXACIN] | 8 | 16 | 0.25 | – | – | – | –
Cc1ccc2c(c1)C(=O)c1cc(O)c(O)cc1C2=O | 32 (≈ 126 µM) | 32 (≈ 126 µM) | 32 (≈ 126 µM) | – | – | – | –
Cc1ncc([N+](=O)[O-])n1CCO [METRONIDAZOLE] | 16 (≈ 93.5 µM) | 32 (≈ 187 µM) | 2 (≈ 11.7 µM) | 33 | – | 0.76 | –
O=C1C2=C(C(=O)c3ccccc31)C(O)OCC2 (stereo not given) | 0.125 (≈ 0.543 µM) | 0.0625 (≈ 0.271 µM) | 0.125 (≈ 0.543 µM) | – | 512 | – | –
OC[C@H]1O[C@@H](Oc2c3c(c(O[C@@H]4O[C@H](CO)[C@@H](O)[C@H](O)[C@H]4O)c4ccccc24)COC=C3)[C@H](O)[C@@H](O)[C@@H]1O | 32 (≈ 59.4 µM) | 32 (≈ 59.4 µM) | 32 (≈ 59.4 µM) | – | – | – | –
OC[C@H]1O[C@@H](Oc2c3c(c(O[C@@H]4O[C@H](CO)[C@@H](O)[C@H](O)[C@H]4O)c4ccccc24)CC(O)OC3)[C@H](O)[C@@H](O)[C@@H]1O (stereo not given in full) | > 64 | > 64 | > 64 | – | – | – | –
O=C(O)c1ccc2c(c1)C(=O)c1ccccc1C2=O | 1 (≈ 3.96 µM) | 0.25 (≈ 0.991 µM) | 0.5 (≈ 1.98 µM) | – | – | – | –
CO[C@@H]1Cc2c(c(O[C@@H]3O[C@H](CO)[C@@H](O)[C@H](O)[C@H]3O)c3ccccc3c2O[C@@H]2O[C@H](CO)[C@@H](O)[C@H](O)[C@H]2O)CO1 | > 64 | > 64 | > 64 | – | – | – | –
C/C(=C/Cc1c(C(=O)O)c(O[C@@H]2O[C@H](CO)[C@@H](O)[C@H](O)[C@H]2O)c2ccccc2c1O[C@@H]1O[C@H](CO)[C@@H](O)[C@H](O)[C@H]1O)CO | > 64 | > 64 | > 64 | – | – | – | –
CO[C@H]1Cc2c(c(O[C@@H]3O[C@H](C)[C@@H](O)[C@H](O)[C@H]3O)c3ccccc3c2O[C@@H]2O[C@H](CO)[C@@H](O)[C@H](O)[C@H]2O)CO1 | > 64 | > 64 | > 64 | – | – | – | –
COc1ccc2c(c1)C(=O)c1cc(CO)ccc1C2=O | 8 (≈ 29.8 µM) | 8 (≈ 29.8 µM) | 8 (≈ 29.8 µM) | – | – | – | –
COC(=O)c1ccc2c(c1)C(=O)c1cc(O)ccc1C2=O | 4 (≈ 14.2 µM) | 2 (≈ 7.09 µM) | 2 (≈ 7.09 µM) | – | – | – | –
O=C1c2ccccc2C(=O)c2cc(CO)ccc21 | 8 (≈ 33.6 µM) | 8 (≈ 33.6 µM) | 8 (≈ 33.6 µM) | – | – | – | –
Cc1ccc2c(c1)C(=O)c1cc(O)ccc1C2=O | 8 (≈ 33.6 µM) | 16 (≈ 67.2 µM) | 8 (≈ 33.6 µM) | – | – | – | –
